Activity calls are given as the source filed them. The rule behind the calls is not given here.
How the values were obtained:
Felis catus [1] = assay: Inhibition of isoproterenol-induced tachycardia in anesthetized cat compound administered as an infusion over a period of 30 mins; assay type: functional
Felis catus [2] = assay: Inhibition of isoproterenol-induced vasodepressor response in anesthetized cat compound administered as an infusion over a period of 30 mins; assay type: organism-based; conditions: in vivo, iv, 0.5 h; also: test concentration or dose not given here

SMILES	inhibition (INH) (Felis catus [2])	ED50 (Felis catus [1]; 0.5 h)	ED50 (Felis catus [1])
COCCNCC(O)COc1ccccc1 (configuration not stated)	0%	0.13 mg/kg	
O=C(O)C(=O)O.OC(CNCCOc1ccccc1)COc1ccccc1Cl (configuration not stated)	38%	1.11 mg/kg	
COCCNCC(O)COc1ccccc1C#N (configuration not stated)	0%	0.198 mg/kg	
COc1ccccc1OCCNCC(O)COc1ccccc1OC.O=C(O)C(=O)O (configuration not stated)	60%	0.539 mg/kg	
COc1ccccc1OCCCNCC(O)COc1ccccc1.O=C(O)C(=O)O (configuration not stated)	15%	0.721 mg/kg	
OC(CNCCOc1ccc(OCc2ccccc2)cc1)COc1ccccc1 (configuration not stated)	0%	0.534 mg/kg	
O=C(O)C(=O)O.OC(CNCCOc1ccccc1Cl)COc1ccccc1 (configuration not stated)	71%	0.821 mg/kg	
Cc1ccccc1OCC(O)CNCCOc1ccc(C(N)=O)cc1 (configuration not stated) [TOLAMOLOL]	81%	0.133 mg/kg	
C=CCc1ccccc1OCCNCC(O)COc1ccccc1.O=C(O)C(=O)O (configuration not stated)	33%	0.75 mg/kg	
COCCNCC(O)COc1cccc2ccccc12 (configuration not stated)			inactive
COCCNCC(O)COc1ccccc1[N+](=O)[O-] (configuration not stated)	29%	0.293 mg/kg	
COc1cccc(OC)c1OCCNCC(O)COc1ccccc1.O=C(O)C(=O)O (configuration not stated)	0%	2.26 mg/kg	
CCOCCCNCC(O)COc1ccccc1 (configuration not stated)	0%	0.066 mg/kg	
CCOCCNCC(O)COc1ccccc1 (configuration not stated)	10%	0.047 mg/kg	
CC(C)OCCNCC(O)COc1ccccc1[N+](=O)[O-].O=C(O)C(=O)O (configuration not stated)	0%	0.195 mg/kg	
CC(CNCC(O)COc1ccccc1)Oc1ccccc1 (configuration not stated)	0%	0.051 mg/kg	
Cc1ccc(OCC(O)CNCCOc2ccccc2)cc1 (configuration not stated)			inactive
COCCNCC(O)COc1ccc(Cl)cc1 (configuration not stated)			inactive
Cc1cccc(Cl)c1OCCNCC(O)COc1ccccc1.O=C(O)C(=O)O (configuration not stated)	79%	0.09 mg/kg	
CCCc1ccccc1OCCNCC(O)COc1ccccc1.O=C(O)C(=O)O (configuration not stated)	0%	0.833 mg/kg	
COc1ccccc1OCC(O)CNCCOc1ccccc1.O=C(O)C(=O)O (configuration not stated)	0%	0.527 mg/kg	
O=C(O)C(=O)O.OC(CNCCOc1c(Cl)cccc1Cl)COc1ccccc1 (configuration not stated)	11%	0.402 mg/kg	
COc1ccccc1OC(C)CNCC(O)COc1ccccc1.O=C(O)C(=O)O (configuration not stated)	0%	0.014 mg/kg	
COCCNCC(O)COc1ccc(O)cc1 (configuration not stated)	0%	0.118 mg/kg	
CCOCCCNCC(O)COc1ccccc1[N+](=O)[O-].O=C(O)C(=O)O (configuration not stated)	0%	0.566 mg/kg	
OC(CNCCOc1ccccc1)COc1ccc(OCc2ccccc2)cc1 (configuration not stated)			inactive

The next lines start with results.

inhibition (INH) (Felis catus [2])	SMILES	ED50 (Felis catus [1]; 0.5 h)	ED50 (Felis catus [1])
0%	Cc1ccccc1OCCNCC(O)COc1ccccc1 (configuration not stated)	0.031 mg/kg	
0%	OC(CNCCOc1ccc(Cl)cc1)COc1ccccc1 (configuration not stated)	0.08 mg/kg	
0%	Cl.Oc1ccccc1OCCNCC(O)COc1ccccc1 (configuration not stated)	0.022 mg/kg	
58%	OC(CNCCOc1ccc(F)cc1)COc1ccccc1 (configuration not stated)	0.029 mg/kg	
36%	OC(CNCCOc1cccc(Cl)c1)COc1ccccc1 (configuration not stated)	0.375 mg/kg	
0%	Cl.OC(CNCCCOc1ccccc1)COc1ccccc1 (configuration not stated)	0.239 mg/kg	
29%	Cc1cccc(OCCNCC(O)COc2ccccc2)c1.Cl (configuration not stated)	0.116 mg/kg	
0%	COc1ccc(OCCNCC(O)COc2ccccc2)cc1 (configuration not stated)	0.064 mg/kg	
0%	Cl.OC(CNCCOc1cccc2ccccc12)COc1ccccc1 (configuration not stated)	0.231 mg/kg	
0%	OC(CNCCOc1ccccc1)COc1ccccc1Br (configuration not stated)	0.3 mg/kg	
33%	Cc1cccc(OCC(O)CNCCOc2ccccc2)c1.Cl (configuration not stated)	1.76 mg/kg	
0%	COc1ccccc1OCCNCC(O)COc1ccccc1 (configuration not stated)	0.063 mg/kg	
12%	Cc1ccccc1OCC(O)CNCCOc1ccccc1.Cl (configuration not stated)	0.284 mg/kg	
78%	Oc1ccc(OCC(O)CNCCOc2ccccc2)cc1 (configuration not stated)	0.031 mg/kg	
0%	OC(CNCCOc1ccccc1)COc1ccccc1 (configuration not stated)	0.054 mg/kg	
0%	OC(CNCCOc1ccccc1F)COc1ccccc1 (configuration not stated)	0.081 mg/kg	
0%	Cc1ccc(OCCNCC(O)COc2ccccc2)cc1 (configuration not stated)	0.179 mg/kg	
